Results from PubChem BioAssay (NCI).
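Each compound was tested at five concentrations against cells in 96-well plates for 48 hours. GI50 = concentration required for 50% inhibition of growth. Definition used: TGI = concentration required for complete inhibition of growth.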

What was measured:
Assay in all cases: growth of human tumour cells (NCI), 48 h
[1] = system: SNB-75 CNS
[2] = system: OVCAR-3 ovarian
[3] = system: SN12C renal
[4] = system: COLO 205 colon
[5] = system: HCC-2998 colon
[6] = system: SK-MEL-5 melanoma
[7] = system: UACC-62 melanoma
[8] = system: RPMI-8226 leukemia
[9] = system: MDA-MB-231 breast
[10] = system: SK-MEL-2 melanoma
[11] = system: M14 melanoma
[12] = system: MALME-3M melanoma
[13] = system: PC-3 prostate
[14] = system: UACC-257 melanoma
[15] = system: IGROV1 ovarian
[16] = system: MDA-MB-468 breast
[17] = system: BT-549 breast
[18] = system: HL-60(TB) leukemia
[19] = system: HOP-62 NSCLC
[20] = system: MCF7 breast
[21] = system: HS 578T breast
[22] = system: MDA-MB-435
[23] = system: SF-268 CNS
[24] = system: A498 renal
[25] = system: SR leukemia
[26] = system: UO-31 renal
[27] = system: SF-295 CNS
[28] = system: 786-0 renal
[29] = system: K-562 leukemia
[30] = system: OVCAR-5 ovarian
[31] = system: NCI-H23 lung
[32] = system: SF-539 CNS
[33] = system: ACHN renal
[34] = system: SK-OV-3 ovarian
[35] = system: RXF 393 renal
[36] = system: NCI-H226 lung
[37] = system: A549 NSCLC
[38] = system: MOLT-4 leukemia
[39] = system: KM12 colon
[40] = system: TK-10 renal
[41] = system: SK-MEL-28 melanoma
[42] = system: EKVX NSCLC
[43] = system: HCT-15 colon
[44] = system: HT29 colon
[45] = system: SNB-19 CNS
[46] = system: CAKI-1 renal
[47] = system: NCI-H460 lung
[48] = system: U251 CNS
[49] = system: LOX IMVI melanoma

CSc1ccc(NC(=O)c2ccc3nn(/C(C#N)=C/c4ccccn4)nc3c2)cc1
GI50 [1]: 1.42 µM | TGI [1]: 4.26 µM | GI50 [2]: 0.991 µM | TGI [2]: 2.64 µM | GI50 [3]: 1.87 µM | TGI [3]: 3.97 µM | GI50 [4]: 1.72 µM | TGI [4]: 3.3 µM | GI50 [5]: 1.65 µM | TGI [5]: 3.01 µM | GI50 [6]: 1.68 µM | TGI [6]: 3.11 µM | GI50 [7]: 1.62 µM | TGI [7]: 3.06 µM | GI50 [8]: 1.77 µM | TGI [8]: 5.71 µM | GI50 [9]: 1.52 µM | TGI [9]: 2.97 µM | GI50 [10]: 1.88 µM | TGI [10]: 3.53 µM | GI50 [11]: 1.78 µM | TGI [11]: 3.3 µM | GI50 [12]: 1.45 µM | TGI [12]: 2.83 µM | GI50 [13]: 1.88 µM | TGI [13]: 3.97 µM | GI50 [14]: 1.64 µM | TGI [14]: 3.17 µM | GI50 [15]: 1.74 µM | TGI [15]: 3.36 µM | GI50 [16]: 1.08 µM | TGI [16]: 2.59 µM | GI50 [17]: 1.67 µM | TGI [17]: 3.11 µM | GI50 [18]: 0.626 µM | TGI [18]: 3.75 µM | GI50 [19]: 1.95 µM | TGI [19]: 3.87 µM | GI50 [20]: 0.971 µM | TGI [20]: 2.47 µM | GI50 [21]: 2.2 µM | TGI [21]: 7.68 µM | GI50 [22]: 1.54 µM | TGI [22]: 3.19 µM | GI50 [23]: 2.36 µM | TGI [23]: 6.21 µM | GI50 [24]: 1.9 µM | TGI [24]: 3.71 µM | GI50 [25]: 1.15 µM | TGI [25]: 7.6 µM | GI50 [26]: 1.2 µM | TGI [26]: 2.43 µM | GI50 [27]: 1.73 µM | TGI [27]: 3.29 µM | GI50 [28]: 1.7 µM | TGI [28]: 3.13 µM | GI50 [29]: 0.681 µM | TGI [29]: 5.05 µM | GI50 [30]: 1.59 µM | TGI [30]: 3.07 µM | GI50 [31]: 1.57 µM | TGI [31]: 2.99 µM | GI50 [32]: 1.67 µM | TGI [32]: 3.04 µM | GI50 [33]: 1.55 µM | TGI [33]: 2.88 µM | GI50 [34]: 2.72 µM | TGI [34]: 6.96 µM | GI50 [35]: 1.24 µM | TGI [35]: 2.51 µM | GI50 [36]: 1.98 µM | TGI [36]: 4.73 µM | GI50 [37]: 2.34 µM | TGI [37]: 5.99 µM | GI50 [38]: 0.796 µM | TGI [38]: 4.63 µM | GI50 [39]: 2.07 µM | TGI [39]: 4.44 µM | GI50 [40]: 1.75 µM | TGI [40]: 3.21 µM | GI50 [41]: 1.67 µM | TGI [41]: 3.05 µM | GI50 [42]: 1.54 µM | TGI [42]: 3.01 µM | GI50 [43]: 1.15 µM | TGI [43]: 2.51 µM | GI50 [44]: 1.87 µM | TGI [44]: 4.51 µM | GI50 [45]: 1.85 µM | TGI [45]: 4.26 µM | GI50 [46]: 1.07 µM | TGI [46]: 2.35 µM | GI50 [47]: 1.88 µM | TGI [47]: 3.95 µM | GI50 [48]: 1.59 µM | TGI [48]: 3.17 µM | GI50 [49]: 1.23 µM | TGI [49]: 2.52 µM
